Values of other authors, collected in patent US5545628A, “Pharmaceutical composition containing fenofibrate” (priority 1995, dated 1996).

SMILES	absorption as metabolite (oral)	excretion (fenofibric acid, mainly as the glucuronide conjugate)
CC(C)OC(=O)C(C)(C)Oc1ccc(C(=O)c2ccc(Cl)cc2)cc1 [Fenofibrate, P-(4-chlorobenzoyl)-phenoxy isobutyrate isopropyl ester]	absorbed as fenofibric acid	–
CC(C)(Oc1ccc(C(=O)c2ccc(Cl)cc2)cc1)C(=O)O [Fenofibric acid]	–	excreted predominantly in the urine
